Data published in ChEMBL document CHEMBL1208746, “3-Cyano-5-fluoro-N-arylbenzamides as negative allosteric modulators of mGlu(5): Identification of easily prepared tool compounds with CNS exposure in rats” (Bioorg Med Chem Lett, 2010).
The source made the active and inactive calls. The rule behind the calls is not given here.

Tests used:
[1] = molecular target: Metabotropic glutamate receptor 5 (Rattus norvegicus) (UniProt P31424); test: Antagonist activity at rat mGlu5 receptor expressed in HEK293A cells assessed as inhibition of glutamate-induced calcium mobilization at 30 uM relative to glutamate; assay type: functional, cell-based; details: HEK293-A
Chain of Metabotropic glutamate receptor 5 (Rattus norvegicus) (P31424 21-1203 limits assumed): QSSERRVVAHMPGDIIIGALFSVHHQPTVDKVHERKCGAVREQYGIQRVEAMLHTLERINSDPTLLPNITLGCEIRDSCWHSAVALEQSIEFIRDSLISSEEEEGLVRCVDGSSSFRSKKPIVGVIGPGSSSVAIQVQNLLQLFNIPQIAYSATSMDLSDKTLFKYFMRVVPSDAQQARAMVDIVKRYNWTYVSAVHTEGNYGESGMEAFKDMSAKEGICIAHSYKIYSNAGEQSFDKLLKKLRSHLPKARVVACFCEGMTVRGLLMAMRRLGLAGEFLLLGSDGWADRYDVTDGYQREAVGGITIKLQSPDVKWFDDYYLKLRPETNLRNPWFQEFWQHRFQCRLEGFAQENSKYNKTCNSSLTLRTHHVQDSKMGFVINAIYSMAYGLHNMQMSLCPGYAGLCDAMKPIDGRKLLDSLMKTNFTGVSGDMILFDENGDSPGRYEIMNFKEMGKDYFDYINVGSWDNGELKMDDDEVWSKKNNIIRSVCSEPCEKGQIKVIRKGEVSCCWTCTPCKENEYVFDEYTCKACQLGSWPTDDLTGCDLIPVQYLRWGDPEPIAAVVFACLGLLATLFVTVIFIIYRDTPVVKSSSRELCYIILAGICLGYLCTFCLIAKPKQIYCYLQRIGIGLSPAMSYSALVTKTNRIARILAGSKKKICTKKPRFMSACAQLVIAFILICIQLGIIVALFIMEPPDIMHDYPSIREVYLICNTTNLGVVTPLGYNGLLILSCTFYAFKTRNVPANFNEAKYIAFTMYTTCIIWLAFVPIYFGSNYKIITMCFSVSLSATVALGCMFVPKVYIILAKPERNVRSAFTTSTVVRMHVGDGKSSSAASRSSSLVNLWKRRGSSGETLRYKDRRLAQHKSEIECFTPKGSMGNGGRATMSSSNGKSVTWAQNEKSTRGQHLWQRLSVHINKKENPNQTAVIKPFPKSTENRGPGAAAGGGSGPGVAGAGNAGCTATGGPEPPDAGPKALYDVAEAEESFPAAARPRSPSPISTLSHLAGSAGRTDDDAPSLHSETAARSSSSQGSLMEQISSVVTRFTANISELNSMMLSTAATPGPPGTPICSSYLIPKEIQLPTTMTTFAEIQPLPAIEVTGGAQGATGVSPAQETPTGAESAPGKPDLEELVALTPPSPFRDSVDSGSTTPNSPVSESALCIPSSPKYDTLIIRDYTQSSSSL

[2] = molecular target: T1, Metabotropic glutamate receptor 5 (Rattus norvegicus, UniProt P31424); test: Antagonist activity at rat mGlu5 receptor expressed in HEK293A cells assessed as inhibition of glutamate-induced calcium mobilization; assay type: functional, cell-based, HEK293-A
[3] = Metabolic stability in human liver microsomes assessed as compound remaining at 1 uM after 15 mins in presence of NADPH; assay type: ADME, Microsome; details: read-out: Stability
[4] = test system: Brain; test: Tmax in Sprague-Dawley rat brain at 10 mg/kg, ip after 0.25 to 4 hrs; assay type: ADME, organism-based; design: dose 10 mg/kg, route intraperitoneal; details: in vivo
[5] = molecular target: Metabotropic glutamate receptor 1 (Homo sapiens) (UniProt Q13255); test: Inhibition of mGlu1 receptor at 10 uM
Chain of Metabotropic glutamate receptor 1 (Homo sapiens) (Q13255 19-1194 limits assumed): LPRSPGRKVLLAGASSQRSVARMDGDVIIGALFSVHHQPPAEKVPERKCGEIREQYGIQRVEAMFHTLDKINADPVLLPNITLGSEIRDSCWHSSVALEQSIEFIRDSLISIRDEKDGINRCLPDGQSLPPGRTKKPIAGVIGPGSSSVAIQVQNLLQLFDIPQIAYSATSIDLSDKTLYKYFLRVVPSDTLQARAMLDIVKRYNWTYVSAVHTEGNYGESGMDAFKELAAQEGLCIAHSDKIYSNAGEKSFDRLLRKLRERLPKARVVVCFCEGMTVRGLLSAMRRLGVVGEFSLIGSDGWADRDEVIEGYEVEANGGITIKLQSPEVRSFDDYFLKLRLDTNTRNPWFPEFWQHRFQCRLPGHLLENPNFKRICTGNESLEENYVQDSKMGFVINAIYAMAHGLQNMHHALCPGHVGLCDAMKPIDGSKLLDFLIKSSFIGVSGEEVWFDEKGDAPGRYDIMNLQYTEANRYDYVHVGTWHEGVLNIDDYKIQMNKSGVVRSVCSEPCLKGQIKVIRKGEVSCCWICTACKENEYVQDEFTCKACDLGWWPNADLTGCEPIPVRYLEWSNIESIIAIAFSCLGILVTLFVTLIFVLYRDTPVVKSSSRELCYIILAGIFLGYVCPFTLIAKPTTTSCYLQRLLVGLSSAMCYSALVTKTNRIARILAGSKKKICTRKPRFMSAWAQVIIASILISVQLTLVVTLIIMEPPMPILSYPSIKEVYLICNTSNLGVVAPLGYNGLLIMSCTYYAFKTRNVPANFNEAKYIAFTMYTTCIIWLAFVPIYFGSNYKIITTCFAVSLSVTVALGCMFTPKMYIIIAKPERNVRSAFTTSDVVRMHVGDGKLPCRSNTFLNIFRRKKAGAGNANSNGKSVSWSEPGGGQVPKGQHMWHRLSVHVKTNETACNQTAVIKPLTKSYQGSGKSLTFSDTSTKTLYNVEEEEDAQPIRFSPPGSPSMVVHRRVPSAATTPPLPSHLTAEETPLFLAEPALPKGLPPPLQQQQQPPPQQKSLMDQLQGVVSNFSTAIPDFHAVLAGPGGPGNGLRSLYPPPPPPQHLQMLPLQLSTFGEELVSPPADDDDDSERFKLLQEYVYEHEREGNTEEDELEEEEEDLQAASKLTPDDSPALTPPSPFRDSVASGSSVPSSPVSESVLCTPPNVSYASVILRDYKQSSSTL

[6] = Cmax in Sprague-Dawley rat brain at 10 mg/kg, ip after 0.25 to 4 hrs; assay type: ADME, organism-based; design: dose 10 mg/kg, route intraperitoneal
[7] = test system: Plasma; test: Tmax in Sprague-Dawley rat plasma at 10 mg/kg, ip after 0.25 to 4 hrs; assay type: ADME, organism-based; design: dose 10 mg/kg, route intraperitoneal; details: in vivo
[8] = AUC (0-4 hrs) in Sprague-Dawley rat plasma at 10 mg/kg, ip; assay type: ADME, organism-based; design: time < 4 hr, dose 10 mg/kg, route intraperitoneal
[9] = test system: Plasma; test: Cmax in Sprague-Dawley rat plasma at 10 mg/kg, ip after 0.25 to 4 hrs; assay type: ADME, organism-based; design: dose 10 mg/kg, route intraperitoneal; details: in vivo
[10] = Metabolic stability in rat liver microsomes assessed as compound remaining at 1 uM after 15 mins in presence of NADPH; assay type: ADME, Microsome; details: read-out: Stability
[11] = molecular target: Metabotropic glutamate receptor 2 (Homo sapiens) (UniProt Q14416); test: Inhibition of mGlu2 receptor at 10 uM
Chain of Metabotropic glutamate receptor 2 (Homo sapiens) (Q14416 19-872 limits assumed): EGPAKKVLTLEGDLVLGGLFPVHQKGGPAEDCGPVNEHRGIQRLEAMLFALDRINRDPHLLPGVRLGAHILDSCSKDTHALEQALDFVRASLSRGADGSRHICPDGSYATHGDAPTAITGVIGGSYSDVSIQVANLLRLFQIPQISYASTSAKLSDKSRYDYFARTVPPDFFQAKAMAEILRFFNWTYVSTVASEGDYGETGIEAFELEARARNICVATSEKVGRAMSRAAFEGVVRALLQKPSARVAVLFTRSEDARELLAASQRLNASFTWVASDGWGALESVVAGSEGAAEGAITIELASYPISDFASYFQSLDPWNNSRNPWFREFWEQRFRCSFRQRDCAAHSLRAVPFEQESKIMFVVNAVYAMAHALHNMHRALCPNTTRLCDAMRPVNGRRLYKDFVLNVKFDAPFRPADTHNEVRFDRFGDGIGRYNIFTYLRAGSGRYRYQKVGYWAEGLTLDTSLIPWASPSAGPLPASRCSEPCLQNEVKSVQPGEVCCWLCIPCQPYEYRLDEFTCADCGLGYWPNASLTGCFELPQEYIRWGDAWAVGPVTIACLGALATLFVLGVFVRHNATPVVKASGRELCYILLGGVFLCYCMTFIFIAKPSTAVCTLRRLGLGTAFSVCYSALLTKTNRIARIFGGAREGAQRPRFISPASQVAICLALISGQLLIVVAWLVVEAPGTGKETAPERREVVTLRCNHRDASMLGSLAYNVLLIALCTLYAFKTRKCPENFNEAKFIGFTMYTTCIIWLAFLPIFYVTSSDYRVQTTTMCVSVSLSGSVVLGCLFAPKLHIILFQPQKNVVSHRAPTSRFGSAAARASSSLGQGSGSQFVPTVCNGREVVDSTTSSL

[12] = molecular target: Metabotropic glutamate receptor 4 (Homo sapiens) (UniProt Q14833); test: Inhibition of mGlu4 receptor at 10 uM
Chain of Metabotropic glutamate receptor 4 (Homo sapiens) (Q14833 whole entry): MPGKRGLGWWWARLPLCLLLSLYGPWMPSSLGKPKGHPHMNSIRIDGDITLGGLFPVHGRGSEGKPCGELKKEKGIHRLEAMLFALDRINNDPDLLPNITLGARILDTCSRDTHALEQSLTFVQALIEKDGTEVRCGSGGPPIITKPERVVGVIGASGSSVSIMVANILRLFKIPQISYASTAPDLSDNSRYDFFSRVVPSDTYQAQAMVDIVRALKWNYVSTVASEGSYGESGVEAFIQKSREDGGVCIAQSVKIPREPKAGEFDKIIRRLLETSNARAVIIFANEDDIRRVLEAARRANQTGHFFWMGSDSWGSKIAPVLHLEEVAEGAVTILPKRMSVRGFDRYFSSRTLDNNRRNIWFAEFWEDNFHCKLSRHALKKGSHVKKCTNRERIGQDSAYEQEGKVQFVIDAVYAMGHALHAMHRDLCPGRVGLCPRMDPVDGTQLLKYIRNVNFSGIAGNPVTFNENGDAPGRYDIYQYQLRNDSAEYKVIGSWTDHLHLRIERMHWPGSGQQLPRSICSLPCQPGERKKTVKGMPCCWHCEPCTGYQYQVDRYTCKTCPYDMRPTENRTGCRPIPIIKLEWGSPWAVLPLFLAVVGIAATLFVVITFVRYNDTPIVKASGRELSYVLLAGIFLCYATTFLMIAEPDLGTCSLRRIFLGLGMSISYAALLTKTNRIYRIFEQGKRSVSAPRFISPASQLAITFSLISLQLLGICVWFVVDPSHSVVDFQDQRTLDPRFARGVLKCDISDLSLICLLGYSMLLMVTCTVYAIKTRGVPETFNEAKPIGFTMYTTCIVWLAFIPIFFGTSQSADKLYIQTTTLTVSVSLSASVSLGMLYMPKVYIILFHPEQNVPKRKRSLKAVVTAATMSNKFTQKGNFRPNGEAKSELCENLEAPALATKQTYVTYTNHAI

[13] = Ratio of drug level brain to plasma in Sprague-Dawley rat at 10 mg/kg, ip; assay type: ADME, organism-based; design: dose 10 mg/kg, route intraperitoneal; details: brain and plasma
[14] = test system: Plasma; test: Protein binding in human plasma by rapid equilibrium dialysis method; assay type: ADME, cell-free
[15] = molecular target: Metabotropic glutamate receptor 3 (Homo sapiens) (UniProt Q14832); test: Inhibition of mGlu3 receptor at 10 uM
Chain of Metabotropic glutamate receptor 3 (Homo sapiens) (Q14832 23-879 limits assumed): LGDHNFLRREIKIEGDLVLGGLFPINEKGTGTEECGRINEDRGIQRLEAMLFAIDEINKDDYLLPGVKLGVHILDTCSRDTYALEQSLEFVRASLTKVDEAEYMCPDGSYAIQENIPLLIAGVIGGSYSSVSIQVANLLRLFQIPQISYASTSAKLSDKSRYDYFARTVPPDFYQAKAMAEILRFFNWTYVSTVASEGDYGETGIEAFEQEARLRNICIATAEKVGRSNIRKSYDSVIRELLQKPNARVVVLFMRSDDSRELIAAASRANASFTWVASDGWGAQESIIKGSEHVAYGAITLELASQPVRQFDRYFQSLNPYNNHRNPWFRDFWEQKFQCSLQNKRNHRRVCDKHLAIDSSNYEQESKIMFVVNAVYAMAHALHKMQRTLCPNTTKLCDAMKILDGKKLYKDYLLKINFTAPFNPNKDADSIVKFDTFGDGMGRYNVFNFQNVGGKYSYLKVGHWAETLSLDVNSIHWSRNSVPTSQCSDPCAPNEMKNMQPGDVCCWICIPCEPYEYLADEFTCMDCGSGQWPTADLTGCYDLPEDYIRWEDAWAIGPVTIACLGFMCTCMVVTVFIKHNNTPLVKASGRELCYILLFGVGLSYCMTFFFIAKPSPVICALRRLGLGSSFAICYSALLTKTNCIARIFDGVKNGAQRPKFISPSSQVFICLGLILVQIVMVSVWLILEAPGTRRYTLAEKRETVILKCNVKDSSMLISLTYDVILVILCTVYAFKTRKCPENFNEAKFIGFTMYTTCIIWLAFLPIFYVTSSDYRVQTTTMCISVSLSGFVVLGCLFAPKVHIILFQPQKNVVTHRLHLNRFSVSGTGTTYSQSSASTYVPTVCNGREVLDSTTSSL

[16] = AUC (0-4 hrs) in Sprague-Dawley rat brain at 10 mg/kg, ip; assay type: ADME, organism-based; design: time < 4 hr, dose 10 mg/kg, route intraperitoneal
[17] = test system: Plasma; test: Protein binding in rat plasma by rapid equilibrium dialysis method; assay type: ADME, cell-free
[18] = molecular target: Metabotropic glutamate receptor 8 (Homo sapiens) (UniProt O00222); test: Inhibition of mGlu8 receptor at 10 uM
[19] = molecular target: T1, Metabotropic glutamate receptor 5; test: Displacement of [3H]methoxy-PEPy from rat mGlu5 receptor expressed in HEK293A cells after 60 mins by scintillation counting; assay type: cell-based, HEK293-A
[20] = molecular target: Metabotropic glutamate receptor 7 (Homo sapiens) (UniProt Q14831); test: Inhibition of mGlu7 receptor at 10 uM

| SMILES | %max [1] [%] | IC50 [2] [nM] | also measured |
| --- | --- | --- | --- |
| N#Cc1cc(F)cc(C(=O)Nc2cccc(C(F)(F)F)c2)c1 | 0.9 | 543 | – |
| N#Cc1cc(F)cc(C(=O)Nc2cccc(C(F)(F)F)n2)c1 | 19.6 | > 10000 | – |
| N#Cc1cccc(NC(=O)c2cc(F)cc(C#N)c2)c1 | 1.4 | 489 | – |
| Cc1ccccc1NC(=O)c1cc(F)cc(C#N)c1 | – | > 30000 | – |
| COc1ccccc1NC(=O)c1cc(F)cc(C#N)c1 | – | > 30000 | – |
| N#Cc1cc(F)cc(C(=O)Nc2nccs2)c1 | 37.4 | > 10000 | – |
| COc1cccc(NC(=O)c2cc(F)cc(C#N)c2)c1 | 35.5 | > 10000 | – |
| Cc1ccc(NC(=O)c2cc(F)cc(C#N)c2)cc1 | – | > 30000 | – |
| N#Cc1cc(F)cc(C(=O)Nc2ccon2)c1 | – | > 30000 | – |
| N#Cc1cc(F)cc(C(=O)Nc2ccccc2F)c1 | – | > 30000 | – |
| N#Cc1cc(F)cc(C(=O)Nc2ccc(F)c(Cl)c2)c1 | 43 | 377 | – |
| N#Cc1cc(F)cc(C(=O)Nc2cccnc2)c1 | – | > 30000 | – |
| N#Cc1cc(F)cc(C(=O)Nc2ccccn2)c1 | 5.4 | 3010 | – |
| N#Cc1cc(F)cc(C(=O)Nc2cccc(Cl)c2F)c1 | 2.5 | 347 | – |
| CC(C)(C)c1csc(NC(=O)c2cc(F)cc(C#N)c2)n1 | 29.7 | > 10000 | – |
| COc1ccc(NC(=O)c2cc(F)cc(C#N)c2)cc1 | – | > 30000 | – |
| Cc1cc(C)nc(NC(=O)c2cc(F)cc(C#N)c2)c1 | – | > 30000 | – |
| N#Cc1cc(F)cc(C(=O)Nc2cccc(Cl)c2)c1 | 0.6 | 45 | remaining at 0.25 h, 1 µM [3]: 18%; Tmax [4]: 15 min; inhibition [5]: inactive; Cmax [6]: 1090 ng/mL; Tmax [7]: 15 min; AUC(0-t) at 4 h [8]: 1200 ng·h/mL; Cmax [9]: 970 ng/mL; remaining at 0.25 h, 1 µM [10]: 96.8%; inhibition [11]: inactive; inhibition [12]: inactive; Kp [13]: 1.4; PPB [14]: 97.1%; inhibition [15]: inactive; AUC(0-t) at 4 h [16]: 1710 ng·h/mL; PPB [17]: 93.7%; inhibition [18]: inactive; Ki [19]: 206 nM; inhibition [20]: inactive |
| N#Cc1cc(F)cc(C(=O)NC2C3CC4CC(C3)CC2C4)c1 (stereo unspecified) | 34.7 | > 10000 | – |
| N#Cc1cc(F)cc(C(=O)Nc2cc(F)cc(Cl)c2)c1 | 38.5 | 1830 | – |
| N#Cc1cc(F)cc(C(=O)NC2CCCCC2)c1 | – | > 30000 | – |
| Cc1ccnc(NC(=O)c2cc(F)cc(C#N)c2)c1 | 38.6 | > 10000 | – |

| SMILES | %max [1] [%] | IC50 [2] [nM] | also measured |
| --- | --- | --- | --- |
| Cc1cccc(NC(=O)c2cc(F)cc(C#N)c2)n1 | 1.2 | 65 | remaining at 0.25 h, 1 µM [3]: 7%; inhibition [5]: inactive; remaining at 0.25 h, 1 µM [10]: 46.5%; inhibition [11]: inactive; inhibition [12]: inactive; PPB [14]: 89.9%; inhibition [15]: inactive; PPB [17]: 84%; inhibition [18]: inactive; Ki [19]: 157 nM; inhibition [20]: inactive |
| Cc1csc(NC(=O)c2cc(F)cc(C#N)c2)n1 | 1 | 59 | remaining at 0.25 h, 1 µM [3]: 70.3%; Tmax [4]: 15 min; inhibition [5]: inactive; Cmax [6]: 28800 ng/mL; Tmax [7]: 15 min; AUC(0-t) at 4 h [8]: 17800 ng·h/mL; Cmax [9]: 7650 ng/mL; remaining at 0.25 h, 1 µM [10]: 89.9%; inhibition [11]: inactive; inhibition [12]: inactive; Kp [13]: 4.1; PPB [14]: 98.4%; inhibition [15]: inactive; AUC(0-t) at 4 h [16]: 73000 ng·h/mL; PPB [17]: 92.4%; inhibition [18]: inactive; Ki [19]: 102 nM; inhibition [20]: inactive |
| COc1cccc(NC(=O)c2cc(F)cc(C#N)c2)n1 | 17.3 | 1510 | – |
| N#Cc1cc(F)cc(C(=O)Nc2ccccc2)c1 | 12.5 | 5440 | – |
| N#Cc1cc(F)cc(C(=O)Nc2ccc(F)cc2)c1 | 69.2 | > 10000 | – |
| Cc1cccnc1NC(=O)c1cc(F)cc(C#N)c1 | – | > 30000 | – |
| N#Cc1cc(F)cc(C(=O)Nc2ccccc2Cl)c1 | – | > 30000 | – |
| N#Cc1cc(F)cc(C(=O)Nc2cc(Cl)ccc2F)c1 | 29.8 | 3780 | – |
| N#Cc1cc(F)cc(C(=O)Nc2nc(C3CC3)cs2)c1 | 1.5 | 900 | – |
| Cc1cnc(NC(=O)c2cc(F)cc(C#N)c2)s1 | 17.5 | 863 | – |
| Cc1cccc(NC(=O)c2cc(F)cc(C#N)c2)c1 | 2.1 | 122 | remaining at 0.25 h, 1 µM [3]: 19.5%; inhibition [5]: inactive; remaining at 0.25 h, 1 µM [10]: 69.7%; inhibition [11]: inactive; inhibition [12]: inactive; PPB [14]: 98.3%; inhibition [15]: inactive; PPB [17]: 95.3%; inhibition [18]: inactive; Ki [19]: 100 nM; inhibition [20]: inactive |
| C#Cc1cccc(NC(=O)c2cc(F)cc(C#N)c2)c1 | 2.3 | 331 | – |
| CC(C)(C)c1cccc(NC(=O)c2cc(F)cc(C#N)c2)c1 | – | > 30000 | – |
| N#Cc1cc(F)cc(C(=O)Nc2cccc(F)c2)c1 | 22.1 | 2160 | – |
| Cc1nc(NC(=O)c2cc(F)cc(C#N)c2)sc1C | 2.4 | 594 | – |
| N#Cc1cc(F)cc(C(=O)Nc2cccc(Cl)n2)c1 | 2.2 | 250 | – |
| Cn1ccc(NC(=O)c2cc(F)cc(C#N)c2)n1 | 46.7 | > 10000 | – |
| N#Cc1cc(F)cc(C(=O)Nc2ccncc2)c1 | – | > 30000 | – |
| CCc1cccc(NC(=O)c2cc(F)cc(C#N)c2)n1 | 1.7 | 505 | – |
| CS(=O)(=O)c1cccc(NC(=O)c2cc(F)cc(C#N)c2)c1 | – | > 30000 | – |
| CCc1cccc(NC(=O)c2cc(F)cc(C#N)c2)c1 | 2.4 | 4940 | – |
| N#Cc1cc(F)cc(C(=O)Nc2ccc(Cl)cc2)c1 | – | > 30000 | – |
